Where two headings read alike, the source gives them in different places.
Tests used:
STS [1] = target: T1, STS (Homo sapiens, UniProt P08842); experiment: Inhibition of STS activity in intact monolayers of JEG-3 cells; assay type: cell-based; conditions: for inhibition at 10 µM: JEG-3, JEG-3 cells
T1 sequence (P08842 22-583): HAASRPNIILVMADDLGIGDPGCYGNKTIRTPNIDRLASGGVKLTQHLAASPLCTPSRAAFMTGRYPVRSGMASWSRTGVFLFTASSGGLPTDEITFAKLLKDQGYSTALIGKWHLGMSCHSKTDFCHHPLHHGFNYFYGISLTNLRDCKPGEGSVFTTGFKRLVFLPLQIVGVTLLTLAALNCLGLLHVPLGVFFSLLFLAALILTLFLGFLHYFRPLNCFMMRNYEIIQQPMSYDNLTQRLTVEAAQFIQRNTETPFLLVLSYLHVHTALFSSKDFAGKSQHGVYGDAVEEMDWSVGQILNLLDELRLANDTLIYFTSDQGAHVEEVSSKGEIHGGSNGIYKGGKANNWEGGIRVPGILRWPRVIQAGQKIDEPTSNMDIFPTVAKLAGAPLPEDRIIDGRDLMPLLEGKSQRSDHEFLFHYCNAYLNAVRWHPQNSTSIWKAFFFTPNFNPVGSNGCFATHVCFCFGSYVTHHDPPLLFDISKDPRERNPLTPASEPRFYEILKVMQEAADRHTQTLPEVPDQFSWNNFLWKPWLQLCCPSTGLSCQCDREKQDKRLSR

STS [2] = conditions: cited from earlier work
liver STS, skin STS = conditions: 1 and 10 mg kg^−1, cited from earlier work
rat liver STS = conditions: 24 h after administration, cited from earlier work
[3] = read-out: PM IC50, placental microsomes
[4] = preparation of placental microsomes

NS(=O)(=O)Oc1ccc2c3c(c(=O)oc2c1)CCCCCCC3 [Compound 6, 6-Oxo-6,7,8,9,10,11,12,13-octahydrocyclonona[c]chromen-3-yl sulfamate]
IC50 (STS [1]): 0.022 nM
IC50 (STS [2]; [3]): 2.4 nM

NS(=O)(=O)Oc1ccc2c3c(c(=O)oc2c1)CCCCCCCCCC3 [Compound 9, 6-Oxo-7,8,9,10,11,12,13,14,15,16-decahydro-6H-cyclododeca[c]chromen-3-yl sulfamate]
IC50 (STS [1]): 100 nM
IC50 (STS [2]; [3]): 60 nM

CCCCCOc1nc2cc(OS(N)(=O)=O)ccc2c2c1CCCCC2 [Compound 21, 6-(Pentyloxy)-8,9,10,11-tetrahydro-7H-cyclohepta[c]quinolin-3-yl sulfamate]
inhibition at 10 µM (STS [1]; determined at 10 μM): < 10%

NS(=O)(=O)Oc1ccc2c3c(c(=O)oc2c1)CCCCC3 [Compound 1, Irosustat]
IC50 (STS [2]; [3]): 8 nM

Cn1c(=O)c2c(c3ccc(OS(N)(=O)=O)cc31)CCCCC2 [Compound 18, 5-Methyl-6-oxo-6,7,8,9,10,11-hexahydro-5H-cyclohepta[c]quinolin-3-yl sulfamate]
IC50 (STS [1]): 2400 nM

COc1cc2c(cc1OS(N)(=O)=O)CC[C@@H]1[C@@H]2CC[C@]2(C)C(=O)CC[C@@H]12 [2-methoxyestrone 3-O-sulfamate, reference compound]
IC50 (STS [2]; [4]): 30 nM

CN(C)S(=O)(=O)Oc1ccc2c3c(c(=O)oc2c1)CCCCC3 [Compound 12, 6-Oxo-6,7,8,9,10,11-hexahydrocyclohepta[c]chromen-3-yl dimethylsulfamate]
IC50 (STS [1]): > 10000 nM
JEG-3 IC50 (STS [1]; JEG-3 cells, Table 1): inactive
Inhibition of skin and liver STS (liver STS, skin STS; applied topically): inhibits skin as well as liver STS effectively
Inhibition of liver STS activity (liver STS, skin STS; nude mice, oral): inhibits liver STS activity potently

COc1cc2c3c(c(=O)oc2cc1OS(N)(=O)=O)CCCCC3 [Compound 13, 2-Methoxy-6-oxo-6,7,8,9,10,11-hexahydrocyclohepta[c]chromen-3-yl sulfamate]
IC50 (STS [1]): 78 ± 13 nM

NS(=O)(=O)Oc1ccc2c3c(c(=O)n(CCCc4ccccc4)c2c1)CCCCC3 [Compound 22, 6-Oxo-5-(3-phenylpropyl)-6,7,8,9,10,11-hexahydro-5H-cyclohepta[c]quinolin-3-yl sulfamate]
inhibition at 10 µM (STS [1]; determined at 10 μM): 20%

NS(=O)(=O)Oc1ccc2c3c(c(OCCCc4ccccc4)nc2c1)CCCCC3 [Compound 23, 6-(3-Phenylpropoxy)-8,9,10,11-tetrahydro-7H-cyclohepta[c]quinolin-3-yl sulfamate]
inhibition at 10 µM (STS [1]; determined at 10 μM): < 10%

NS(=O)(=O)Oc1ccc2c3c(c(=O)oc2c1)CCCCCCCCCCCCC3 [Compound 11, 6-Oxo-6,7,8,9,10,11,12,13,14,15,16,17,18,19-tetradecahydrocyclopentadeca[c]chromen-3-yl sulfamate]
IC50 (STS [1]): 1600 nM
Inhibition of rat liver STS activity (rat liver STS; 0.1 mg kg^−1): 23%
Inhibition of rat liver STS activity (rat liver STS; 1 mg kg^−1): 94%
IC50 (STS [2]; [3]): 370 nM

CCCCCn1c(=O)c2c(c3ccc(OS(N)(=O)=O)cc31)CCCCC2 [Compound 20, 6-Oxo-5-pentyl-6,7,8,9,10,11-hexahydro-5H-cyclohepta[c]quinolin-3-yl sulfamate]
inhibition at 10 µM (STS [1]; determined at 10 μM): < 10%

NS(=O)(=O)Nc1ccc2c3c(c(=O)[nH]c2c1)CCCCC3 [Compound 24, 6-Oxo-6,7,8,9,10,11-hexahydro-5H-cyclohepta[c]quinolin-3-ylsulfamide]
IC50 (STS [1]): > 1000 nM

NS(=O)(=O)Oc1ccc2oc(=O)c3c(c2c1)CCCCC3 [Compound 14, 6-oxo-6,7,8,9,10,11-hexahydrocyclohepta[c]chromen-2-yl sulfamate]
IC50 (STS [1]): 283 ± 66 nM

NS(=O)(=O)Oc1ccc2c3c(c(=O)oc2c1)CCCCCCCCCCC3 [Compound 10, 6-Oxo-6,7,8,9,10,11,12,13,14,15,16,17-dodecahydrocyclotrideca[c]chromen-3-yl sulfamate]
IC50 (STS [1]): 220 nM
IC50 (STS [2]; [3]): 75 nM

NS(=O)(=O)Oc1ccc2c3c(c(=O)oc2c1)CCCCCCCC3 [Compound 7, 6-Oxo-7,8,9,10,11,12,13,14-octahydro-6H-cyclodeca[c]chromen-3-yl sulfamate]
IC50 (STS [1]): 0.025 nM
IC50 (STS [2]; [3]): 1 nM

NS(=O)(=O)Oc1ccc2c3c(c(=O)[nH]c2c1)CCCCC3 [Compound 16, 6-Oxo-6,7,8,9,10,11-hexahydro-5H-cyclohepta[c]quinolin-3-yl sulfamate]
IC50 (STS [1]): 240 ± 40 nM
inhibition at 10 µM (STS [1]; determined at 10 μM): 98%
Fold less potent than 1 (STS [1]; JEG-3 IC50 versus 1): 160 fold
Inhibition (STS [1]; JEG-3 cells, determined at 10 μM, 10 µM): 96%

COc1nc2cc(OS(N)(=O)=O)ccc2c2c1CCCCC2 [Compound 19, 6-Methoxy-8,9,10,11-tetrahydro-7H-cyclohepta[c]quinolin-3-yl sulfamate]
inhibition at 10 µM (STS [1]; determined at 10 μM): 68%

C[C@]12CC[C@@H]3c4ccc(OS(N)(=O)=O)cc4CC[C@H]3[C@@H]1CCC2=O [EMATE, oestrone 3-O-sulfamate, reference compound]
IC50 (STS [2]; [4]): 4 nM

Source: paper PMC3262147 (Chemmedchem, 2011)
